Like-named read-outs stand apart in the source and are kept apart here.
Tests used:
[1] = tissue homogenate binding by ultrafiltration; assay type: in vitro ADME, mice; settings: mean ± RSD
[2] = tissue distribution after single and repeated administration; assay type: in vivo, mice; settings: for concentration at 24 h: 20 mg/kg, mean ± SEM
Description: Via heparin-coated catheters a maximum of 50 µL blood was collected from the tail vein at 0.25, 0.5, 1, 2, 3, 4, 6, 8, or 24 h after administration and immediately centrifuged at 4000× g at 4 °C for 10 min. For repeated administration 20 mg/kg BW SH045 were administered at 8:00 a.m. on five consecutive days, once a day. Blood was taken 1 h and 24 h after drug administration. Tissue samples were harvested from isoflurane-euthanized animals at indicated time points. Mice were transcardially perfused with PBS and dissected tissues were washed to remove remaining blood. Plasma and tissue samples were stored at −80 °C until analysis. Urine was collected by bladder puncture at indicated time points.
For tissue analysis, homogenates (10% in phosphate-buffered saline, PBS) were prepared. Homogenate, plasma, and urine were mixed with IS and extracted with ice-cold ACN, centrifuged, filtered and stored in the autosampler at 6 °C until analysis in duplicates by LC-MS/MS (details in Supplementary Materials SM4).
Larixyl-N-methylcarbamate ((1S,4S,4aR,8aS)-4-((S)-3-hydroxy-3-methylpent-4-en-1-yl)-4a,8,8-trimethyl-3-methylenedeca-hydro-naphthalen-1-yl methylcarbamate, SH045, TRPC6 inhibitor) was synthesized as described by Häfner et al. [1]. (+)-Larixol (internal standard, IS) was isolated from Larix decidua turpentine [2]. Kolliphor® EL was obtained from Caelo (Hilden, Germany). Acetonitrile (ACN), water, and formic acid (LC -MS grade each) were purchased from Fisher Scientific (Schwerte, Germany). Testo sterone, 4-nitrophenol, β-nicotinamide adenine dinucleotide 2′ -phosphate reduced tetrasodium salt hydrate (β-NADPH), uridine 5′-diphosphoglucuronic acid ammonium salt (UDPGA), pilocarpine, ticlopidine, quercetin, sulfaphenazole, fluvoxamine, quinidine, 4-methyl pyrazole, ketoconazole, alamethicin and Dulbecco’s phosphate-buffered saline (DPBS, pH 7.4) were obtained from Merck (Darmstadt, Germany). Ciprofloxacin was purchased from Bayer AG (Leverkusen, Germany). Liver microsomes from mice (CD-1, male, MLM) and human (pooled: 50 donors, HLM) were obtained from Fisher Scientific (Gibco, protein concentration: 20 mg/mL respectively). Syringe filters (Phenex, regenerated cellulose, pore-size 0.2 μm) were purchased from Phenomenex (Aschaffenburg, Germany) and centrifugal filter units (30 kDa) from Merck Millipore […]
SM2 Quantification of SH045 by HPLC and tandem mass spectrometric methods (LC-MS/MS) In brief, chromatographic separation was achieved using a Zorbax Eclipse XDB-C8 column (100 × 3.0 mm, 3.5 μm 80 Å, Agilent Technologies) with linear gradient elution using water and ACN, each with 0.1 % formic acid as additive, during a total run time of 20 min. For quantification (+)-larixol was used as IS. MS detection was achieved by multiple reaction monitoring (MRM) scan mode for SH045 (m/z 364.3/289.3) and IS (m/z 307.2/151.2), respectively. Further conditions and parameters were set as reported previously [3]. Freshly prepared calibration samples for SH045 in plasma and tissue comprised eight concentration levels analyzed in duplicates (2, 5, 10, 100, 200, 800, 1200 and 1600 ng/mL). For metabolism studies in microsomes, SH045 was dissolved in pure DMSO. […]
All analyses for metabolite identification included comparative measurements of appropriate control samples in order to avoid false-positive results.
SM3 Histopathological examination of tissue repeatedly exposed to SH045 Liver, kidney and lung were collected after repeated administration for inspection for histopathological changes, fixed in 4% paraformaldehyde solution and embedded in paraffin. Tissue slices (6 µm) of three animals either of untreated controls or such assigned to repeated administration of SH045 were deparaffinized and hematoxylin and eosin-stained. At least 5 slices per animal and tissue were microscopically examined using a light microscope (Zeiss, […]
SM4 Preparation of samples for analysis of SH045 and its metabolites by LC-MS/MS […]

Compound: C=C[C@@](C)(O)CC[C@H]1C(=C)C[C@H](OC(=O)NC)[C@H]2C(C)(C)CCC[C@]12C [SH045, (1S,4S,4aR,8aS)-4-((S)-3-Hydroxy-3-methylpent-4-en-1-yl)-4a,8,8-trimethyl-3-methylenedecahydronaphthalen-1-yl methylcarbamate]
- Tissue binding ([1]; kidney homogenate 1:10, SH045 1 µg/mL, 30 min): 97.6 ± 0.9%
- Tissue binding ([1]; kidney homogenate 1:10, SH045 1 µg/mL, 60 min): 97.8 ± 0.4%
- Tissue binding ([1]; kidney homogenate 1:10, SH045 1 µg/mL, 120 min): 98.3 ± 0.2%
- Tissue binding ([1]; kidney homogenate 1:10, SH045 1 µg/mL, 240 min): 98.3 ± 0.1%
- Tissue binding ([1]; liver homogenate 1:10, SH045 2 µg/mL, 30 min): 99.4 ± 0.1%
- Tissue binding ([1]; liver homogenate 1:10, SH045 2 µg/mL, 60 min): 97.1 ± 1.0%
- Tissue binding ([1]; liver homogenate 1:10, SH045 2 µg/mL, 120 min): 99.0 ± 0.1%
- Tissue binding ([1]; liver homogenate 1:10, SH045 2 µg/mL, 240 min): 97.8 ± 0.9%
- Tissue binding ([1]; lung homogenate 1:10, SH045 50 µg/mL, 30 min): 93.5 ± 1.2%
- Tissue binding ([1]; lung homogenate 1:10, SH045 50 µg/mL, 60 min): 94.9 ± 0.1%
- Tissue binding ([1]; lung homogenate 1:10, SH045 50 µg/mL, 120 min): 97.8 ± 0.5%
- Tissue binding ([1]; lung homogenate 1:10, SH045 50 µg/mL, 240 min): 97.4 ± 0.8%
- entry into the brain ([2]; 20 mg/kg i.v.): entered the brain
- drug accumulation in tissues after repeated administration ([2]; 20 mg/kg i.v. five times once a day): no hints for drug accumulation
- concentration at 24 h ([2]; male, C57BL/6, mouse, brain, iv, 24 h after repeated (5 days, once a day) 20 mg/kg BW i.v., read-out: Concentration, Brain): 19.6 ± 5.5 ng/g
- concentration at 24 h ([2]; male, C57BL/6, mouse, brain, iv, 24 h after single (1×) 20 mg/kg BW i.v., read-out: Concentration, Brain): 14.8 ± 7.6 ng/g
- concentration at 24 h ([2]; male, C57BL/6, mouse, fat, iv, 24 h after repeated (5 days, once a day) 20 mg/kg BW i.v., read-out: Concentration, Fat): 369 ± 50 ng/g
- concentration at 24 h ([2]; male, C57BL/6, mouse, fat, iv, 24 h after single (1×) 20 mg/kg BW i.v., read-out: Concentration, Fat): 333 ± 61.2 ng/g
- concentration at 24 h ([2]; male, C57BL/6, mouse, kidney, iv, 24 h after repeated (5 days, once a day) 20 mg/kg BW i.v., read-out: Concentration, Kidney): 17.8 ± 4.4 ng/g
- concentration at 24 h ([2]; male, C57BL/6, mouse, kidney, iv, 24 h after single (1×) 20 mg/kg BW i.v., read-out: Concentration, Kidney): 14.8 ± 5.9 ng/g
- concentration at 24 h ([2]; male, C57BL/6, mouse, liver, iv, 24 h after repeated (5 days, once a day) 20 mg/kg BW i.v., read-out: Concentration, Liver): 17.5 ± 4.6 ng/g
- concentration at 24 h ([2]; male, C57BL/6, mouse, liver, iv, 24 h after single (1×) 20 mg/kg BW i.v., read-out: Concentration, Liver): 14.2 ± 5.2 ng/g
- Kp ([2]; male, C57BL/6, mouse, lung, iv, 20 mg/kg BW, after i.v. administration, read-out: first-pass uptake into the lung relative to respective plasma concentration): ~20
- concentration at 24 h ([2]; male, C57BL/6, mouse, lung, iv, 24 h after repeated (5 days, once a day) 20 mg/kg BW i.v., read-out: Concentration, Lung): 2390 ± 1020 ng/g
- concentration at 24 h ([2]; male, C57BL/6, mouse, lung, iv, 24 h after single (1×) 20 mg/kg BW i.v., read-out: Concentration, Lung): 2170 ± 414 ng/g
